The source made the active and inactive calls.
Legend:
[1] = target: Dual specificity tyrosine-phosphorylation-regulated kinase 1A (Rattus norvegicus, UniProt Q63470); type: biochemical, Homo sapiens
[2] = inhibitors of CMV-promoter luciferase reporter, dose response, counter-screen for Pax8 inhibitor project, cell-based, HEK293, luminescence, dry powder (AID 743020); type: functional
[3] = HepG2 cell cytotoxicity, dose response, cytotoxicity control for Shn3 inhibitor project, CellTiter-Glo, cherry-picked (AID 624134); type: functional, cell-based
[4] = target: Tyrosine-protein phosphatase non-receptor type 22 (Homo sapiens, UniProt Q9Y2R2); type: functional;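 further: confirmatory dose-response retest of primary uHTS hits for inhibition of LYP phosphatase, measured by a fluorescence intensity read-out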
[5] = inhibitors of intracellular T. cruzi replication, confirmation, NIH3T3 host cells, beta-gal luminescence (AID 2044); type: functional, cell-based;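 further: intracellular parasites grown in NIH/3T3 mouse fibroblasts as host cells; luminescent beta-galactosidase reporter signal from transgenic T. cruzi replicating inside host cells; inhibitors lower the luminescence signal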
Phospholipase A2 = Phospholipase A2 (Homo sapiens, UniProt P04054); type: functional;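 further: confirmatory dose-response counterscreen on phospholipase A2, testing hits that came from an ultra-high-throughput screen for ATG4B inhibitors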
Protein RecA = target: T1, Protein RecA (Mycobacterium tuberculosis, UniProt P9WHJ3); test: RecA Intein Measured in Biochemical System Using Plate Reader - 2047-02_Inhibitor_Dose_DryPowder_Activity. [Related pubchem assays (depositor defined):AID2223]; design: species or system Mycobacterium tuberculosis H37Rv
T1 sequence (P9WHJ3 whole entry): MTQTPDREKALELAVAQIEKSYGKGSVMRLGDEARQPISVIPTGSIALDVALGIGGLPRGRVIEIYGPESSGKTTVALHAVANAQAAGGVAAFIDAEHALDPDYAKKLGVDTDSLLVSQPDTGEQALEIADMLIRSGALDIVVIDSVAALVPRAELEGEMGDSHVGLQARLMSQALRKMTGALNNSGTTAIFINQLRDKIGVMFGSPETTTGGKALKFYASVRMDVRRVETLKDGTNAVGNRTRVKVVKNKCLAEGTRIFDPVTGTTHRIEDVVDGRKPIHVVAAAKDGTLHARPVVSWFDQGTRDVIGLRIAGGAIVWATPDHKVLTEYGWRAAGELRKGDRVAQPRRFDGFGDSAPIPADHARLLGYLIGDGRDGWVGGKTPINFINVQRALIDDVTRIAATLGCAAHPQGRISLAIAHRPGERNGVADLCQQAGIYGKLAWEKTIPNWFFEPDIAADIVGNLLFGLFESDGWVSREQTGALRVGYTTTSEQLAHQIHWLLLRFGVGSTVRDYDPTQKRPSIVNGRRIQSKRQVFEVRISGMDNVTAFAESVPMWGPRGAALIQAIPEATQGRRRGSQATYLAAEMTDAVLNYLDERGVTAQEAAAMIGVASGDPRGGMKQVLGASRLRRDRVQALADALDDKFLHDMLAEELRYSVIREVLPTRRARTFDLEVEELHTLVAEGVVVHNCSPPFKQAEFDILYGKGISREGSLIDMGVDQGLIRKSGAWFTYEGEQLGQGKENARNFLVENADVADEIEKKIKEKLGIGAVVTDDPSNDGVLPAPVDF

[6] = target: T2, Sentrin-specific protease 7 (Homo sapiens, UniProt Q9BQF6); type: functional;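 further: Luminescence-based dose-response confirmation of ultra-high-throughput screening hits, measuring inhibition of SENP7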
T2 sequence (Q9BQF6 whole entry): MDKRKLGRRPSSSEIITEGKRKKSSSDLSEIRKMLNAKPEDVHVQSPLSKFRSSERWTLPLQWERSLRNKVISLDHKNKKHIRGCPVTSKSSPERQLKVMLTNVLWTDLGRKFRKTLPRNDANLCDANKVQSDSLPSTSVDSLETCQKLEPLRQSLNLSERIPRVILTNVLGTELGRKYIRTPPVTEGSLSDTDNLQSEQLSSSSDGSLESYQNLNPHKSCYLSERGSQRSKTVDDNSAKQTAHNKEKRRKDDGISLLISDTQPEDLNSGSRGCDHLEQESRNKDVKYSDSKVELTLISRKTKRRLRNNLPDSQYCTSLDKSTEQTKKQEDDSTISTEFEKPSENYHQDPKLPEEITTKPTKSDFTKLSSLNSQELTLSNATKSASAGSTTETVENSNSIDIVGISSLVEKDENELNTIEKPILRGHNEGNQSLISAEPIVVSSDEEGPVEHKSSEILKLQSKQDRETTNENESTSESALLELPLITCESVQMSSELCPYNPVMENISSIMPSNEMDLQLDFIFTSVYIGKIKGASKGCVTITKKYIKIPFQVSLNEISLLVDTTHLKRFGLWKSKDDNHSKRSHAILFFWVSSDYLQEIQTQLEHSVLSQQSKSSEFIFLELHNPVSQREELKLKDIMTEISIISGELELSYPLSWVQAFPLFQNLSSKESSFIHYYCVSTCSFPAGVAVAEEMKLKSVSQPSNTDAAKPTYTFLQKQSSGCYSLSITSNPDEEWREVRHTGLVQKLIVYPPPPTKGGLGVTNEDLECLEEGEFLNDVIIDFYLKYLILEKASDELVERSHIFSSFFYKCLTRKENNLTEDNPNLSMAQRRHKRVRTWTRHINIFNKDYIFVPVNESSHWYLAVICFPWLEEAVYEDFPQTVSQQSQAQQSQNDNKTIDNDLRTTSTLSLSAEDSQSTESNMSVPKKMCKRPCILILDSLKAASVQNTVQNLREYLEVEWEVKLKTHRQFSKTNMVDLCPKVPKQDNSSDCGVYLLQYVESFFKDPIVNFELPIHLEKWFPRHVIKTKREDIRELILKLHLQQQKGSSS

[7] = target: Homeodomain-interacting protein kinase 4 (Homo sapiens, UniProt Q8NE63); type: functional
Aurora kinase B = Aurora kinase B (Homo sapiens, UniProt Q96GD4); type: functional
[8] = target: Mitogen-activated protein kinase 9 (Homo sapiens, UniProt P45984); type: functional;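 further: value from a kinome panel profiling assay, MAPK9 panel entry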
[9] = target: Mitogen-activated protein kinase kinase kinase kinase 5 (Homo sapiens, UniProt Q9Y4K4); type: functional;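 further: measured as one member of a kinome-spanning kinase panel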
[10] = target: Mitogen-activated protein kinase 14 (Homo sapiens, UniProt Q16539); type: functional;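 further: part of a kinome-wide panel, MAPK14 entry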
Chain of Mitogen-activated protein kinase 14 (Q16539 whole entry): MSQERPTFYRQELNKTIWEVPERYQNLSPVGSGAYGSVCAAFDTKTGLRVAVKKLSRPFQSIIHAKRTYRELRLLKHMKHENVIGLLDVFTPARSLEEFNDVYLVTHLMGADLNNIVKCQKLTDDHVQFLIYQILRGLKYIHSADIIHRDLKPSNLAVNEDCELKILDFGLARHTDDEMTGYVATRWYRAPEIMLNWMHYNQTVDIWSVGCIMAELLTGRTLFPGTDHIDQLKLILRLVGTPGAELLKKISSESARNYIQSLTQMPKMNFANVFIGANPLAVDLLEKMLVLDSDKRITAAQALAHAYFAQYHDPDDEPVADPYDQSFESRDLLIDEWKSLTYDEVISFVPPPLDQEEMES

Chain of Homeodomain-interacting protein kinase 4 (Q8NE63 whole entry): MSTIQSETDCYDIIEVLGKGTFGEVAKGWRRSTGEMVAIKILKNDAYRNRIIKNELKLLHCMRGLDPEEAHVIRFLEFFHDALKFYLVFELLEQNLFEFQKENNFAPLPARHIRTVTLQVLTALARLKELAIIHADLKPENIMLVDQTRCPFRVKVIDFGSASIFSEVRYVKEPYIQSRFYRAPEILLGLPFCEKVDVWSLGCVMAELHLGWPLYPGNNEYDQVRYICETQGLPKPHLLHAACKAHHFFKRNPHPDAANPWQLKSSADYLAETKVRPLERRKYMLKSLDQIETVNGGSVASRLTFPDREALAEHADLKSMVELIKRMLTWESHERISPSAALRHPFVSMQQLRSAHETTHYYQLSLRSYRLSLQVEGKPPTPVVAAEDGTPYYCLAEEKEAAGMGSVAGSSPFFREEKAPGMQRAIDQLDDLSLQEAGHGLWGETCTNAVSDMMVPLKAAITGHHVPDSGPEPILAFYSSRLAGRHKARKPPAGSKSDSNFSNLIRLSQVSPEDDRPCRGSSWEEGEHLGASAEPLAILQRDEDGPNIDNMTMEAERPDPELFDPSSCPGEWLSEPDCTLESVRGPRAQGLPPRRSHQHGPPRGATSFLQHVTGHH
Chain of Mitogen-activated protein kinase kinase kinase kinase 5 (Q9Y4K4 whole entry): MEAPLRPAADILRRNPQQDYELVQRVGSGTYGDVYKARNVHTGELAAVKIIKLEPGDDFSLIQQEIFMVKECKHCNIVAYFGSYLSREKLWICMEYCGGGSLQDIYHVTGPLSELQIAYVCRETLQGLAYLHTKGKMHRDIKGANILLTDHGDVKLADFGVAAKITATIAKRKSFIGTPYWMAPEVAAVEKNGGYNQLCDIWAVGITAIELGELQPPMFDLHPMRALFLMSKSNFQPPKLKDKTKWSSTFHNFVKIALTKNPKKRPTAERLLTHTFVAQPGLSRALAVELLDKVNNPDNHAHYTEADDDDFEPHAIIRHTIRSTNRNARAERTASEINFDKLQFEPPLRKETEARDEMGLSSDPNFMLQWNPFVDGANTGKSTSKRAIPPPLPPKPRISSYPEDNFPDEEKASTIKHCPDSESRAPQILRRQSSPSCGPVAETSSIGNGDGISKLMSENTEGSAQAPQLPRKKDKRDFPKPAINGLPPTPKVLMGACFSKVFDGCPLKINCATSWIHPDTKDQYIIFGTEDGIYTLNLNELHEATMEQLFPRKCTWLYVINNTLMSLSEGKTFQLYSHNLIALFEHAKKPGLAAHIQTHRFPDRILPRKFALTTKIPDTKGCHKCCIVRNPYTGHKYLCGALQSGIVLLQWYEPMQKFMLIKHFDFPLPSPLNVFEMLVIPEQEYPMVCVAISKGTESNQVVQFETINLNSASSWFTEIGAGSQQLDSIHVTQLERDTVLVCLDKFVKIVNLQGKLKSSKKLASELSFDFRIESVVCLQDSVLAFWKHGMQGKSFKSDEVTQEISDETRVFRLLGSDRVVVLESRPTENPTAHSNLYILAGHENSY
Chain of Tyrosine-protein phosphatase non-receptor type 22 (Q9Y2R2 whole entry): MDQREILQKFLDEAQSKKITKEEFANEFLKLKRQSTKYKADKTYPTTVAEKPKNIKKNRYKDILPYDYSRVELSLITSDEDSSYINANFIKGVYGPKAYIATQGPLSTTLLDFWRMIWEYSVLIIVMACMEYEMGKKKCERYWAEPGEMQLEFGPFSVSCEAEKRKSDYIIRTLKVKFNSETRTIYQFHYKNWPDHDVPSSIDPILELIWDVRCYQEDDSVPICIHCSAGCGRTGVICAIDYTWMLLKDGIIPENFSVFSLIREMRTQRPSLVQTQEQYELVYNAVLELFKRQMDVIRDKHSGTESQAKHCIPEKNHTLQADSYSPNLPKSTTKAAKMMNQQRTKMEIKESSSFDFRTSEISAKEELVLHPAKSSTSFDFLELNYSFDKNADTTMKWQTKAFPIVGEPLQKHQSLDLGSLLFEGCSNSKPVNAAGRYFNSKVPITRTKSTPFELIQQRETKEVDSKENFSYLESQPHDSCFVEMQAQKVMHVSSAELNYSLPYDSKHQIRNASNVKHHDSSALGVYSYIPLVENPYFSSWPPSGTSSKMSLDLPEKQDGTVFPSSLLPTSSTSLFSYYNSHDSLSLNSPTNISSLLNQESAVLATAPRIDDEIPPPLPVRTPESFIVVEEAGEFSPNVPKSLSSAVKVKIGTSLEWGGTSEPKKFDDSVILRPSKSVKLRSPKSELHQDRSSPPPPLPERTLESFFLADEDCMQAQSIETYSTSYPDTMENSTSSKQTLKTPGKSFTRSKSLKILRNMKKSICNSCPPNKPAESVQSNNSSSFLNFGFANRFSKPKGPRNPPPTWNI
Chain of Phospholipase A2 (P04054 whole entry): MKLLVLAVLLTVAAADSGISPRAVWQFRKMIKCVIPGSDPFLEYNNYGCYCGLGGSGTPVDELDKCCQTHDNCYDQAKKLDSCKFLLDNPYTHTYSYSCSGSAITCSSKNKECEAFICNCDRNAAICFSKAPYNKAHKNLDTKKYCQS
Chain of Aurora kinase B (Q96GD4 whole entry): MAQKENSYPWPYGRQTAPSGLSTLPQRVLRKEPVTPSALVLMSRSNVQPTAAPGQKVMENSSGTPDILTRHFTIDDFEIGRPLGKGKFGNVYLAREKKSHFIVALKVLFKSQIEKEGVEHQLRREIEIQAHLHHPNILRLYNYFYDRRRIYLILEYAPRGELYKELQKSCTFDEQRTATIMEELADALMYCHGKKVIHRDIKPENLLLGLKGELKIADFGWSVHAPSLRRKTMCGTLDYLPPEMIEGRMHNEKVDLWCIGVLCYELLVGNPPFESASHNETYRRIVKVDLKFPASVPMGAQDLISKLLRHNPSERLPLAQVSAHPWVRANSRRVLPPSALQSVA
Chain of Mitogen-activated protein kinase 9 (P45984 whole entry): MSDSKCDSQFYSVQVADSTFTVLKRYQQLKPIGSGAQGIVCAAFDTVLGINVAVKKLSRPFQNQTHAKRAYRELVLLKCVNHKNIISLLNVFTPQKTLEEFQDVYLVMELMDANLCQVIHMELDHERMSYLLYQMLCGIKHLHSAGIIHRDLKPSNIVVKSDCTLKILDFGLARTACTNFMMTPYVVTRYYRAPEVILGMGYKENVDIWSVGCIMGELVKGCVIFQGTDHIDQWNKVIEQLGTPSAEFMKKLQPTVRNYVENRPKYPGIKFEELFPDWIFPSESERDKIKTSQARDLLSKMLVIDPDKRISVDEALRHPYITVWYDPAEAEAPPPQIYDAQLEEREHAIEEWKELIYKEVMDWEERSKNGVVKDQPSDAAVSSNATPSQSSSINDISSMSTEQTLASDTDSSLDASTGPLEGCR

What does the source list for `CCn1nc(/C=C/c2ccccc2)nc2c(=O)n(C)c(=O)nc1-2`?
AC50 [1]: 0.281 µM (active); AC50 [2]: < 0.704 µM (active); AC50 [3]: 12 µM (active); IC50 [4]: 11.7 µM (active); EC50 [5]: 0.789 µM (active); IC50 (Phospholipase A2): > 80 µM (inactive); AC50 (Protein RecA): 0.06 µM (active)

For `CC(C)c1ccc(-c2nnn(CCC(=O)O)n2)cc1`, which IC50 [6] is on record?
The IC50 was 7.22 µM (active).

Which Ki [7] does the source give for `COc1cc2c(cc1Nc1nc(Nc3cccc(F)c3C(N)=O)c3cc[nH]c3n1)N(C(=O)CN(C)C)CC2` here?
The Ki was 6.31 µM (active).

What about the Ki (Aurora kinase B) of the same molecule?
The Ki was > 3.98 µM (inactive).

What about the Ki [8] of the same molecule?
The Ki was 0.631 µM (active).

What about the Ki [9] of the same molecule?
The Ki was > 7.94 µM (inactive).

What about the Ki [10] of the same molecule?
Its Ki is > 3.98 µM (inactive).

Source: ChEMBL document CHEMBL1201862, “PubChem BioAssay data set” (2004)
